Reference: ChEMBL document CHEMBL1121781, “Potential antitumor agents. 34. Quantitative relationships between DNA binding and molecular structure for 9-anilinoacridines substituted in the anilino ring” (J Med Chem, 1981)
Calls of active or inactive are those of the source. The rule behind the calls is not given here.

Assays:
[1] = test system: Nucleic Acid
Description: Association constant for binding to poly [d(G-C)]

[2] = test system: Nucleic Acid; remark: listed apart in the source
Description: Association constant for binding to poly [d(A-T)]

[3] = test system: Calf thymus DNA; details: Bos taurus
Description: Inhibitory concentration against ethidium binding to DNA

[4] = physchem
Description: Ionisation constant (pKa)

[5] = organism: Mus musculus
Description: Maximum percent increase in life span of mice

Compound | Log K [1] | Log K [2] | C50 [3] | pKa [4] | ILS [5]
CC(=O)Nc1ccccc1Nc1c2ccccc2nc2ccccc12 | 5.46 | 5.84 | 42 µM | 7.24 | inactive
Brc1ccc(Nc2c3ccccc3nc3ccccc23)cc1 | 5.98 | 6.02 | 11 µM | 7 | inactive
Oc1ccc(Nc2c3ccccc3nc3ccccc23)cc1 | 6.21 | 6.28 | 5.1 µM | 7.91 | –
COC(=O)c1ccccc1Nc1c2ccccc2nc2ccccc12 | 5.41 | 5.47 | 40 µM | 6.3 | inactive
c1ccc(Nc2c3ccccc3nc3ccccc23)cc1 | 5.85 | 5.86 | 16 µM | 7.46 | inactive
Nc1ccccc1Nc1c2ccccc2nc2ccccc12 | 5.76 | 5.76 | 13 µM | 7.87 | inactive
c1cncc(Nc2c3ccccc3nc3ccccc23)c1 | 5.96 | 5.75 | 13 µM | 6.46 | inactive
Clc1ccc(Nc2c3ccccc3nc3ccccc23)cc1 | 5.91 | 5.99 | 14 µM | 7.06 | inactive
O=[N+]([O-])c1ccc(Nc2c3ccccc3nc3ccccc23)cc1 | 5.69 | 5.48 | 19 µM | – | inactive
O=S(=O)(Nc1ccc(Nc2c3ccccc3nc3ccccc23)cc1)c1ccccc1 | 6.23 | 6.2 | 5.7 µM | 7.09 | –
Clc1ccccc1Nc1c2ccccc2nc2ccccc12 | 5.47 | 5.39 | 41 µM | 6.55 | inactive
Nc1ccc(S(=O)(=O)Nc2ccc(Nc3c4ccccc4nc4ccccc34)cc2)cc1 | 6.26 | 6.3 | 4.4 µM | 7.15 | –
CC(=O)Nc1cccc(Nc2c3ccccc3nc3ccccc23)c1 | 5.96 | 5.9 | 13 µM | 7.16 | –
Nc1cccc(Nc2c3ccccc3nc3ccccc23)c1 | 6.01 | 6.11 | 8.6 µM | 7.58 | –
COC(=O)c1ccc(Nc2c3ccccc3nc3ccccc23)cc1 | 5.86 | 5.88 | 15 µM | – | –
CCOc1ccccc1Nc1c2ccccc2nc2ccccc12 | 5.08 | 5.2 | 85 µM | 7.85 | inactive
CN(c1ccc(Nc2c3ccccc3nc3ccccc23)cc1)S(C)(=O)=O | 6 | 5.89 | 9.9 µM | – | –
Brc1ccccc1Nc1c2ccccc2nc2ccccc12 | 5.32 | 5.35 | 58 µM | 6.41 | inactive
COc1ccccc1Nc1c2ccccc2nc2ccccc12 | 5.47 | 5.5 | 34 µM | 7.74 | –
CS(=O)(=O)NCc1ccccc1Nc1c2ccccc2nc2ccccc12 | 5.39 | 5.6 | 46 µM | 7.17 | inactive
NS(=O)(=O)c1ccccc1Nc1c2ccccc2nc2ccccc12 | 5.77 | 5.67 | 18 µM | – | inactive

Compound | Log K [1] | Log K [2] | C50 [3] | pKa [4] | ILS [5]
O=C(Nc1ccccc1)Nc1ccc(Nc2c3ccccc3nc3ccccc23)cc1 | 6.3 | 6.37 | 3.8 µM | 7.67 | –
Oc1ccccc1Nc1c2ccccc2nc2ccccc12 | 5.42 | 5.36 | 39 µM | 7.8 | inactive
Fc1ccc(Nc2c3ccccc3nc3ccccc23)cc1 | 5.85 | 5.9 | 16 µM | 7.5 | inactive
CCNc1ccc(Nc2c3ccccc3nc3ccccc23)cc1 | 6.36 | 6.44 | 1.7 µM | 8.3 | –
COc1ccc(Nc2c3ccccc3nc3ccccc23)cc1 | 6.08 | 6.12 | 7.4 µM | 7.94 | inactive
CC(C)(C)c1ccccc1Nc1c2ccccc2nc2ccccc12 | 5.09 | 5.23 | 100 µM | 7.62 | inactive
Nc1ccc(Nc2c3ccccc3nc3ccccc23)cc1 | 6.23 | 6.31 | 2.3 µM | 8.36 | –
CC(=O)c1ccc(Nc2c3ccccc3nc3ccccc23)cc1 | 5.89 | 5.87 | 14 µM | 6.12 | inactive
CNS(=O)(=O)c1ccc(Nc2c3ccccc3nc3ccccc23)cc1 | 5.85 | 5.82 | 16 µM | 6.02 | inactive
Ic1ccccc1Nc1c2ccccc2nc2ccccc12 | 5.27 | 5.33 | 126 µM | 6.47 | inactive
O=C(Nc1ccc(Nc2c3ccccc3nc3ccccc23)cc1)c1ccccc1 | 6.14 | 6.2 | 5.4 µM | 7.39 | –
CS(=O)(=O)Nc1cccc(Nc2c3ccccc3nc3ccccc23)c1 | 5.86 | – | 15 µM | – | –
CNC(=O)Nc1ccc(Nc2c3ccccc3nc3ccccc23)cc1 | – | – | 4.1 µM | 7.77 | –
CCCCCCNc1ccc(Nc2c3ccccc3nc3ccccc23)cc1 | 6.38 | 6.43 | 1.6 µM | 8.24 | inactive
NC(=O)c1ccccc1Nc1c2ccccc2nc2ccccc12 | 5.43 | 5.37 | 38 µM | – | inactive
COc1cccc(Nc2c3ccccc3nc3ccccc23)c1 | 5.91 | 5.86 | 14 µM | 7.21 | inactive
CN(c1ccccc1Nc1c2ccccc2nc2ccccc12)S(C)(=O)=O | 5.46 | 5.08 | 37 µM | 6.97 | inactive
COC(=O)Nc1ccccc1Nc1c2ccccc2nc2ccccc12 | 5.78 | 5.56 | 17 µM | 7.24 | inactive
CNc1cccc(Nc2c3ccccc3nc3ccccc23)c1 | 6.01 | 6.11 | 7 µM | 7.61 | inactive
c1ccc(Nc2c3ccccc3nc3ccccc23)nc1 | 5.43 | 5.6 | 42 µM | 6.32 | inactive
Clc1cccc(Nc2c3ccccc3nc3ccccc23)c1 | 6.02 | 6.02 | 11 µM | 6.76 | inactive

Compound | Log K [1] | Log K [2] | C50 [3] | pKa [4] | ILS [5]
Oc1cccc(Nc2c3ccccc3nc3ccccc23)c1 | 6.1 | 6 | 8.2 µM | 7.3 | inactive
CCCCNc1ccc(Nc2c3ccccc3nc3ccccc23)cc1 | 6.39 | 6.45 | 1.6 µM | 8.24 | inactive
Fc1ccccc1Nc1c2ccccc2nc2ccccc12 | 5.65 | 5.59 | 27 µM | 6.84 | inactive
NS(=O)(=O)c1ccc(Nc2c3ccccc3nc3ccccc23)cc1 | 5.92 | 5.96 | 14 µM | – | inactive
CNc1ccc(Nc2c3ccccc3nc3ccccc23)cc1 | 6.54 | 6.55 | 1.2 µM | 8.42 | –
Cc1cccc(Nc2c3ccccc3nc3ccccc23)c1 | 5.9 | 6.09 | 15 µM | 7.52 | inactive
CN(C)c1ccc(Nc2c3ccccc3nc3ccccc23)cc1 | 6.29 | 6.51 | 2 µM | 8.46 | –
CCc1ccccc1Nc1c2ccccc2nc2ccccc12 | 5.15 | 5.18 | 83 µM | 7.68 | inactive
CCCNc1ccc(Nc2c3ccccc3nc3ccccc23)cc1 | 6.28 | 6.35 | 2 µM | 8.25 | inactive
CS(=O)(=O)Nc1ccccc1Nc1c2ccccc2nc2ccccc12 | 6.1 | 5.49 | 7.3 µM | 6.86 | inactive
N#Cc1ccc(Nc2c3ccccc3nc3ccccc23)cc1 | 5.86 | 5.7 | 15 µM | 5.93 | inactive
NC(=O)c1ccc(Nc2c3ccccc3nc3ccccc23)cc1 | 5.77 | 5.83 | 18 µM | – | inactive
Cc1ccc(Nc2c3ccccc3nc3ccccc23)cc1 | 5.99 | 5.99 | 10 µM | 7.72 | –
O=[N+]([O-])c1cccc(Nc2c3ccccc3nc3ccccc23)c1 | 5.62 | 5.56 | 27 µM | 6.26 | inactive
CC(=O)Nc1ccc(Nc2c3ccccc3nc3ccccc23)cc1 | – | – | 4.7 µM | 7.51 | –
CC(C)c1ccccc1Nc1c2ccccc2nc2ccccc12 | 4.92 | 5.08 | 142 µM | 7.64 | inactive
COC(=O)Nc1ccc(Nc2c3ccccc3nc3ccccc23)cc1 | 6.23 | – | 5.3 µM | 7.64 | –
CS(=O)(=O)Nc1ccc(Nc2c3ccccc3nc3ccccc23)cc1 | – | – | 8.9 µM | – | –
O=[N+]([O-])c1ccccc1Nc1c2ccccc2nc2ccccc12 | 5.49 | 5.36 | 36 µM | – | inactive
